Assay results taken from US20190151289A1, “Identification of Small Molecule Inhibitors of Jumonji AT-Rich Interactive Domain 1A (JARID1A) Histone Demethylase” (YALE UNIVERSITY, priority 2016, published 2019).
Read-outs that look alike come from different tables or passages of the source.

What was measured:
full-length FLAG-KDM5A = molecular target: T1, full-length FLAG-KDM5A (Homo sapiens, UniProt P29375); assay: AlphaScreen KDM5A demethylation assay (bio-H3K4me3 peptide); type: biochemical; details: for hit in KDM5A inhibitor screen: compounds at 20 μM, hit threshold ~30% inhibition
T1 construct: Sf21 insect cells were infected with baculovirus to express full-length FLAG-KDM5A; made in house; host or cells: Sf21 insect cells (baculovirus)
Description: (§1) Histone demethylase assays were performed using previously described methods (Sayegh et al., 2013, J. Biol. Chem. 9408-9417), with the exception of all enzyme reactions containing 125 μM α-KG. Enzymes were used at the following approximate concentrations in validation experiments, chosen based on their activity in AlphaScreen assays: 19 nM FLAG-KDM5A, 15 nM FLAG-KDM5B, 6 nM FLAG-KDM5C, 29 nM His-FLAG-KDM6A, and 16 nM FLAG-KDM6B. 24 nM FLAG-KDM5A was used for Km determination experiments. Reactions were carried out for 1 hour, or were stopped by addition of 30 mM EDTA every 5 minutes for determining enzyme kinetics. Km values were calculated using the Michaelis-Menten non-linear regression analysis on GraphPad Prism 6.0 software. The concentration of DMSO in demethylation reactions was 0.05%. For reactions with catalase, catalase (Sigma C30) or an equal volume of dilution buffer was added to the peptide-containing buffer before addition of the demethylase. The final concentration of catalase in the reactions was 0.01 mg/ml.
(§2) The AlphaScreen general IgG (protein A) detection kit from PerkinElmer Life Sciences was used as described previously (Sayegh et al., 2013, J. Biol. Chem. 9408-9417). The luminescence emission was recorded at 570 nm using the AlphaScreen optic module on a Pherastar (BMG Labtech) or Envision (PerkinElmer Life Sciences) microplate reader.
8,861 compounds from the ChemBridge MW-Set, ChemBridge DIVERSet, MicroSource Gen-Plus, MicroSource Pure Natural Products, NIH Clinical Collection, and Enzo Epigenetics libraries were screened for inhibition of FLAG-KDM5A demethylase activity. Compounds were dissolved in DMSO and added at 20 μM to 384-well white plates (Corning 3574) containing 64 nM bio-H3K4me3 peptide in demethylase buffer prior to addition of 13 nM FLAG-KDM5A. Hits were selected at a threshold of three standard deviations (˜30% inhibition). A counter-screen was performed with the hits to eliminate any non-specific compounds. For this, 20 μM compounds were added to 64 nM bio-H3K4me2 peptide in demethylase buffer with no enzyme. Any hits that interfered with the positive signal detection were eliminated. Dose-response curves were performed on selected hits using 0.1-11 μM of compound. Further validation of top hits was performed using 5 μM of each compound or a dose-response curve using 0.05-50 μM of the compound.
Fresh compounds were ordered to confirm identity. IC50 curves were generated for YUKA1 and YUKA2 using 0.05-50 μM compound in 1 hour reactions. IC50 values were calculated by log transformation and non-linear regression log (inhibitor) versus response (three parameters) using Graphpad Prism 6.0 software. Percent activity of KDM5A was calculated for each data point by subtracting the background (average H3K4me3 signal) and dividing by the average signal for the DMSO controls. α-KG competition tests were performed using 150 nM H3K4me3 peptide and 50 μM Fe(II).
AlphaScreen technology (Perkin Elmer) was utilized to perform a screen for small molecule inhibitors of KDM5A. The assay was comprised of two steps, a demethylation reaction followed by detection of the product. A biotinylated H3K4me3 peptide was used as substrate in the demethylation reaction with KDM5A in the presence or absence of small molecule inhibitors. The presence of peptide product (H3K4me1/2) was detected using a product-specific antibody and beads. For this, acceptor beads coated in protein A bound to the antibody, which recognized the peptide product. Donor beads coated in streptavidin bound biotin on the peptide substrate. […]

[1] = tested on: H3K4 methylation in HeLa cells; assay: Western blot of global H3K4 methylation, HeLa; type: cell-based, human; details: HeLa and MCF7 cell lines, western blot
Description: Sf21 insect cells were cultured at 27° C. in Grace's medium (Gibco) with 10% fetal bovine serum (FBS) and 1% penicillin/streptomycin. HeLa cells were cultured in DMEM (Gibco) with 10% FBS and 1% penicillin/streptomycin. BT474, MCF7, MDA-MB-231, PC9 and ZR-75-1 cells were cultured in RPMI 1640 (Gibco) with 10% FBS and 1% penicillin/streptomycin. MCF10A cells were cultured as using previously described methods (Sayegh et al., 2013, J. Biol. Chem. 9408-9417). All human cells were cultured at 37° C. and 5% carbon dioxide. HeLa and MCF7 cell lines were authenticated using short tandem repeat profiling performed at the DNA Analysis Facility on Science Hill at Yale University. All other human cell lines used were within 10 passages after being obtained from the American Type Culture Collection.
Cells were lysed using previously described methods (Lin et al., 2011, Proc. Natl. Acad. Sci. U.S.A. 108:13379-13386). Histones were separated by centrifugation, resuspended in Laemmeli buffer, and sonicated. Protein concentration of cell lysates was measured by Bradford assay. Samples in Laemmeli buffer were boiled 10 minutes at 95° C. and loaded onto 7% (whole cell lysates) or 18% (histones) SDS-PAGE gels. Membranes were blocked in 4% non-fat milk in Tris-buffered saline with 0.05% Tween (TBS-T) and incubated with primary antibodies in the same buffer or 5% bovine serum albumin in TBS-T overnight at 4° C. Membranes were incubated with secondary anti-rabbit or anti-mouse antibodies for one hour at room temperature. Blots were visualized by Thermo Scientific Pierce ECL Western Blotting Substrate (32106) or EMD Millipore Immobilon Western Chemiluminescent HRP Substrate (WBKLS0100) on film. Signal was quantified using ImageJ software.

KDM5C = molecular target: T2, KDM5C (Homo sapiens, UniProt P41229); assay: AlphaScreen KDM5C demethylation assay; type: biochemical
T2 construct: FLAG; made in house
Description: as §1, §2

[2] = inhibitors found by high throughput screening, read-out: KDM5A IC50

T1 sequence (P29375 whole entry): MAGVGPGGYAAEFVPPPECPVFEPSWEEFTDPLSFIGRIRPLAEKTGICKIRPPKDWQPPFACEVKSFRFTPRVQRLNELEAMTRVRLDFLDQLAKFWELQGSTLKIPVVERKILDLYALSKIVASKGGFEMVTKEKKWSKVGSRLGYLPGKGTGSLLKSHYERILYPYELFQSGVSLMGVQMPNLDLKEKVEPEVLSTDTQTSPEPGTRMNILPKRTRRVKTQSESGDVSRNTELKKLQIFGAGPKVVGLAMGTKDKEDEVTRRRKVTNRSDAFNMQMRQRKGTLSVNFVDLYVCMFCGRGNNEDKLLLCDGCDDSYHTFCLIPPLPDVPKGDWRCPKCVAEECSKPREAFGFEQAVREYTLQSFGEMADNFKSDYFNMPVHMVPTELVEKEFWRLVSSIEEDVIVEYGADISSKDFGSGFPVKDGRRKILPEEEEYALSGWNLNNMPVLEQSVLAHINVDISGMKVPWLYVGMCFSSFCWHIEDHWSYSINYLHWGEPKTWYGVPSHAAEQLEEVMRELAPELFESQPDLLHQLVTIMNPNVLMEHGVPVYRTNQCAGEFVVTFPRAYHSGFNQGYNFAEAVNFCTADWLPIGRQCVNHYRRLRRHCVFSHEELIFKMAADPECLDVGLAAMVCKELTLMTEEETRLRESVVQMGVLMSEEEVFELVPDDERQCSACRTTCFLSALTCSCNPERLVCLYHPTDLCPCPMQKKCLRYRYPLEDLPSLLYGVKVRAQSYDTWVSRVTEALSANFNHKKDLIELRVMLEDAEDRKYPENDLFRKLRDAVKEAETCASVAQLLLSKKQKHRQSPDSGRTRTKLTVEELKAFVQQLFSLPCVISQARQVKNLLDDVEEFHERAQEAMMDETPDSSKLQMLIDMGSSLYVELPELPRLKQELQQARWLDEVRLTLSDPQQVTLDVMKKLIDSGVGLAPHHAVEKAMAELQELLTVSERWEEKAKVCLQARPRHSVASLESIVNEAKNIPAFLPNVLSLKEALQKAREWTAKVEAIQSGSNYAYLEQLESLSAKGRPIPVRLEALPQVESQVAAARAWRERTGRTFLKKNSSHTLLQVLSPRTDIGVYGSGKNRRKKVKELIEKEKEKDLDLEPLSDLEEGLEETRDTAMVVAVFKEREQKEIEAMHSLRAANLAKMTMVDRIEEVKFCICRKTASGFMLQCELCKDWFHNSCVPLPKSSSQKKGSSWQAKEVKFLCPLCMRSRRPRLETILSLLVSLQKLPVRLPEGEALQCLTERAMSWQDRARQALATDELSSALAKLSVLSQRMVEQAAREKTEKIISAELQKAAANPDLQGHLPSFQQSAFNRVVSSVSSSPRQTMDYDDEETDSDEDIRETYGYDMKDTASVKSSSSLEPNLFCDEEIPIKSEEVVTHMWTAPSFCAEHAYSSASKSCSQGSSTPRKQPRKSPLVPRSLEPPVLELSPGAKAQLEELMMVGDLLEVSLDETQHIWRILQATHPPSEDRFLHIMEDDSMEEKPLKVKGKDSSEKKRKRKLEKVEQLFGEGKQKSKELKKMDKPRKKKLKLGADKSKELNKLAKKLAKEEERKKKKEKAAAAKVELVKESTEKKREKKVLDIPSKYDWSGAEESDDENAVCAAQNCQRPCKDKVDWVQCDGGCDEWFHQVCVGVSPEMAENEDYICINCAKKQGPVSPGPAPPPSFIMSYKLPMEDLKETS
T2 sequence (P41229 whole entry): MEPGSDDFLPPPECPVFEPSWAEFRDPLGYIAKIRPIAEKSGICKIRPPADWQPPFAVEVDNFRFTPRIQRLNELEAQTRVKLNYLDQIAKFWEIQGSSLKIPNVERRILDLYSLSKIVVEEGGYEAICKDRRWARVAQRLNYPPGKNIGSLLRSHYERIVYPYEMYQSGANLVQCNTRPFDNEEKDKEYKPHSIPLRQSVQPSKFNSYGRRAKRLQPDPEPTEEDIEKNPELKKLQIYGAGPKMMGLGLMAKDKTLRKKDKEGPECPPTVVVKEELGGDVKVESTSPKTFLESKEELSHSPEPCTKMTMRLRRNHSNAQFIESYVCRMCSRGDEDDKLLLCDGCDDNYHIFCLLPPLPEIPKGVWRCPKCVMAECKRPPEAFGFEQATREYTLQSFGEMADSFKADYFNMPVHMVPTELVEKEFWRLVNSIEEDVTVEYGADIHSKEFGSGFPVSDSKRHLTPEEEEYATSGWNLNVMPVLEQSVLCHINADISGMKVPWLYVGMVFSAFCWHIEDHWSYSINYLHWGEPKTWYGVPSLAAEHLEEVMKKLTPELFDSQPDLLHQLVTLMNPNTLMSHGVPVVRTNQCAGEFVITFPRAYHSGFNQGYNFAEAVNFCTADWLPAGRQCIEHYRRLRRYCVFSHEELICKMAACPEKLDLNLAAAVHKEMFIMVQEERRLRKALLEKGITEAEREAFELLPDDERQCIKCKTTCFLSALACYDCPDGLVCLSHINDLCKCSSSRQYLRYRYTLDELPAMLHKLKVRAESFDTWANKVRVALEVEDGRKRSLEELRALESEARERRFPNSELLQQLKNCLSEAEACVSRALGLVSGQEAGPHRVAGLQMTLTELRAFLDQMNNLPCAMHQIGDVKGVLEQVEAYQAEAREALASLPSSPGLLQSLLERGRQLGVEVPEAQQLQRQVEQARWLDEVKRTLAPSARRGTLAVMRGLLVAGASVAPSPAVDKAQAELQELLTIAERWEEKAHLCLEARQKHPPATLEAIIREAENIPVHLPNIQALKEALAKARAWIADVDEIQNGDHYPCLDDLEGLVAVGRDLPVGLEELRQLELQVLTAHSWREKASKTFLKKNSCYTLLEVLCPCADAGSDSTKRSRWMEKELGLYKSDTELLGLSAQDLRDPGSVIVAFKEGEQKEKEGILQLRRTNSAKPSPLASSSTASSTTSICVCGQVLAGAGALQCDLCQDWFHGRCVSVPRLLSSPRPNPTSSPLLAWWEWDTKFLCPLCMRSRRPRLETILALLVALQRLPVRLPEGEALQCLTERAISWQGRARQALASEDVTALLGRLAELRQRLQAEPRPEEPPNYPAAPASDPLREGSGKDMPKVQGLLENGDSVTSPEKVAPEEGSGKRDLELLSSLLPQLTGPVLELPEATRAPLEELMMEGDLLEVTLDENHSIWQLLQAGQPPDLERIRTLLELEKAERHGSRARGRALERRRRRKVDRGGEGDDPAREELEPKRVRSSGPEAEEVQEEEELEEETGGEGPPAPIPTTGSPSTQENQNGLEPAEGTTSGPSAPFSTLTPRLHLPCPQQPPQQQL

Compound | IC50 (full-length FLAG-KDM5A; [2]) | hit in KDM5A inhibitor screen (full-length FLAG-KDM5A) | also measured
COc1cccc(Cc2nnc(S)n2-c2ccc(Cl)cc2)c1 [YU017175, 4-(4-chlorophenyl)-5-(3-methoxybenzyl)-4H-1,2,4-triazole-3-thiol] | 57 nM | – | –
O=C(O)c1ccnc(C(=O)O)c1 [2,4-PDCA, 2,4-pyridinedicarboxylic acid, reference compound] | – | among the active hits in the screen | –
C[C@@](Cc1ccc(O)c(O)c1)(NN)C(=O)O [carbidopa, reference compound] | – | among the active hits in the screen | –
COc1cccc(Cc2nnc(S)n2Cc2ccco2)c1 [YU017176, 4-(furan-2-ylmethyl)-5-(3-methoxybenzyl)-4H-1,2,4-triazole-3-thiol] | 1760 nM | – | –
N[C@@H](Cc1ccc(O)c(O)c1)C(=O)O [levodopa, reference compound] | – | among the active hits in the screen | –
Cc1ccc(-n2sc3ccccc3c2=O)cc1 [PBIT, 2-4(4-methylphenyl)-1,2-benzisothiazol-3(2H)-one, reference compound] | – | among the active hits in the screen | –
CCCCSCCc1nnc(S)n1-c1ccccc1 [YU149596, 5-(2-(butylthio)ethyl)-4-phenyl-4H-1,2,4-triazole-3-thiol] | 169 nM | – | –
Cc1cccc(-n2c(C)nnc2S)c1 [YU128402, 5-methyl-4-(m-tolyl)-4H-1,2,4-triazole-3-thiol] | 79 nM | – | –
C=CCn1c(S)nnc1CNC(=O)c1cccc(C)c1 [YUKA2, N-[(4-allyl-5-mercapto-4H-1,2,4-triazol-3-yl)methyl]-3-methylbenzamide] | 2660 nM | – | mode of KDM5A inhibition with respect to Fe(II) (full-length FLAG-KDM5A): uncompetitive with respect to Fe(II); KDM5A enzyme inhibition at low Fe(II) (full-length FLAG-KDM5A; 5 μM Fe(II)): too weak to generate robust IC50 curves; effect of catalase on inhibitory potency against KDM5A (full-length FLAG-KDM5A; 0.01 mg/ml catalase): did not affect the inhibitory potency; IC50 (full-length FLAG-KDM5A; 0.05-50 μM compound, 1 hour reactions, read-out: average in vitro IC50 against KDM5A): 1320 nM; change of KDM5A IC50 with α-KG concentration (full-length FLAG-KDM5A; 16-fold range of α-KG, 150 nM H3K4me3 peptide, 50 μM Fe(II)): did not change significantly; cell activity by global H3K4 methylation changes [1]: but not YUKA2, was cell-active; fold less active against KDM5C (vs KDM5A) (KDM5C): ~5 fold
CCn1c(S)nnc1CNC(=O)c1cccc(C)c1 [YU126648, N-((4-ethyl-5-mercapto-4H-1,2,4-triazol-3-yl)methyl)-3-methylbenzamide] | 159 nM | – | –
C=CCn1c(S)nnc1-c1cccnc1 [YU125526, 4-allyl-5-(pyridin-3-yl)-4H-1,2,4-triazole-3-thiol] | 197 nM | – | –
O=C(O)/C=C/c1ccc(O)c(O)c1 [caffeic acid, reference compound] | – | among the active hits in the screen | –
